Assay results taken from patent US20240197869A1, “HYPERACTIVATORS OF MAMMALIAN DENDRITIC CELLS” (Corner Therapeutics, Inc., priority 2021, published 2024).

Columns and labels:
[1] = system: human monocyte-derived dendritic cells (moDCs); test: DAMP screen: IL-1β secretion by LPS-activated human moDCs (ELISA); assay type: cell-based
Procedure: Danger-Associated Molecular Pattern (DAMP) Screen.
(§1) Quantification of IL-1beta Secretion. IL-1beta secretion was assessed using the ELISA MAX Deluxe Set Human IL-1beta kit (Biolegend). ELISAs were performed according to manufacturer's instructions with the following modifications: i) total sample volume for incubation was reduced from […] the top standard was prepared at […], with two-fold dilutions to […]; and iii) sample incubation was completed overnight at 4 C on an orbital shaker. […] To determine IL-1beta concentration in supernatants, sample IL-1beta concentrations were interpolated using a standard curve via 4PL analysis on GraphPad Prism 9 (GraphPad Software). The interpolated results of samples were then adjusted for any dilutions made to the supernatant.

[2] = system: human monocyte-derived dendritic cells (moDCs); test: DAMP screen: viability of human moDCs (CellTiter-Glo)
Procedure: Danger-Associated Molecular Pattern (DAMP) Screen. After 6 days of differentiation into moDC, cells were collected and counted. Cells were plated at 100,000 cells/well in R10 media in 96-well flat bottom tissue culture-treated plates. LPS, serotype O55:B5 (Enzo Life Sciences) was added to a final concentration of 1 μg/mL in each well. […] Cells were incubated at 37° C., 5% CO2 for two days. Cell cultures were then used for endpoint analyses.
Endpoint Analyses. After culturing moDCs with PAMPs and DAMPs for two days, supernatant and cell samples were collected for analysis.
(§5) Quantification of Cell Viability. Cell viability was assessed by quantifying the presence of ATP as an indicator of metabolically active cells using the CellTiter-Glo Luminescent Cell Viability Assay (Promega). Metabolic activity was assessed following manufacturer's instructions. The CellTiter-Glo reagent was mixed with the cell pellets and remaining supernatant, and transferred to a white, opaque 96-well plate. Luminescence was measured on all wavelengths on a Spectramax iD3 plate reader (Molecular Devices) using an integration time of 500 ms. Percent viability was calculated relative to the control condition of moDCs treated with LPS.

[3] = system: human memory CD4+ T cells; test: Human moDC coculture with memory CD4 T cells: cytokine secretion; assay type: cell-based; settings: moDC treated with R848 + lipid; limiting anti-CD3; 2 days after T cell addition
Description: Human moDC coculture with memory CD4 T cells. Human monocytes were isolated from leukopheresis products using Miltenyi StraightFrom LeukoPak CD14 microbeads as directed by manufacturer. Custom PBMC isolation microbead kits from Miltenyi were used to separate PBMCs from red blood cells and granulocytes from the same blood products. After PBMC purification, Miltenyi human memory CD4+ T cell isolation kits were used to negatively select the CD45RO+ fraction. Cells were cryogenically stored until ready for use in experiments.
Human monocytes were differentiated into dendritic cells as previously described using recombinant human GM-CSF and IL-4 for 6 days. moDCs were plated in R10 media at 5E4 cells/well into 96-well U-bottom microplates for hyperactivations. […] T cell stimulating anti-CD3 antibody was added into the culture (with or without blocking anti-IL-1beta antibody) prior to T cell addition. Autologous frozen memory CD4 T cells were thawed, resuspended in R10 media and added at 2.5×10^5 cells/well (ratio 1:5, DC:T cell). After two days incubation, cell culture supernatant was collected and used for measuring cytokine secretion. Commercially available kits such as Biolegend LegendPlex kits were used as directed by manufacturer's protocol to quantify cytokines of interest.
Four donors were tested with each experimental condition tested in triplicate. […]

[4] = system: human monocyte-derived dendritic cells (moDCs); test: Lipid titration: IL-1β secretion by LPS-activated human moDCs; assay type: cell-based; settings: for Activity Units (AU) ± SD (lipid activity index): reciprocal of lowest concentration giving IL-1β two-fold over LPS x highest IL-1β signal, lipid 1.3-82.5 μM + LPS
Procedure: as §1

[5] = system: human monocyte-derived dendritic cells (moDCs); test: Lipid titration: viability of human moDCs (CellTiter-Glo)
Procedure: Lipid Titration. After 6 days of differentiation into moDC, cells were collected and counted. Cells were replated at 100,000 cells/well in R10 media in 96-well flat bottom tissue culture-treated plates. LPS, serotype 055:B5 (Enzo Life Sciences) was added to a final concentration of 1 μg/mL in each well. After the addition of LPS, lipids were prepared. […] After two days of culture, cell cultures were used for endpoint analyses.
Endpoint Analyses. After culturing moDCs with PAMPs and DAMPs for two days, supernatant and cell samples were collected for analysis. Cells in culture were pelleted by centrifugation at 400×g for 5 min.
as §5
Statistical Analyses. […] For each tested condition, cells from each donor were plated to be tested in triplicate.

[6] = system: human PBMCs; test: Viability of human PBMCs (CellTiter-Glo); assay type: cell-based; settings: 2 days post-activation; lipids combined with R848
Procedure: (§2) Isolation of PBMCs from Whole Blood. PBMCs were isolated from whole blood using density gradient centrifugation with Ficoll-Paque PLUS (Cytivia). Whole blood was diluted 1:1 with PBS, layered on top of Ficoll-Paque PLUS and centrifuged at 1000×g for 30 minutes at room temperature. PBMCs were collected, washed twice in PBS, and incubated with Ack lysis buffer (Lonza) to remove any remaining red blood cells.
(§3) Cell Culture and Stimulation. […] Cells were plated at 1×10^5 (canine cells) or 1×10^6 (human cells) per well in 96-well flat bottom tissue culture plates. Lyophilized Vaccigrade R848 (Invivogen) was reconstituted and diluted according to manufacturer's recommendations and added to cells at a final concentration of 1 μg/mL.
(§4) Quantification of Cell Viability.

[7] = system: canine peripheral blood mononuclear cells (PBMCs); test: Viability of canine PBMCs (CellTiter-Glo); assay type: cell-based; settings: lipid combined with R848, 2 days; relative to R848 alone
Procedure: as §2, §3, §4

[8] = system: non-human primate PBMCs; test: Cytokine secretion by non-human primate PBMCs (LegendPlex); assay type: cell-based, cynomolgus macaques
Procedure: Non-human primate PBMC hyperactivation. Whole blood from cynomolgus macaques was diluted with an equal volume of PBS. A solution of 90% Ficoll-Paque PLUS and 10% RPMI was made, and diluted whole blood was overlayed on top of the diluted Ficoll. Cells were centrifuged at 1000 rcf for 30 minutes at room temperature with no brakes. The buffy coat layer was collected and washed twice with PBS. If red blood cell contamination was present, cells were incubated in ACK lysis buffer for 2 minutes before being washed with PBS to remove lysed red blood cells.
Isolated PBMC were plated at 1×10^6 cells/well and cultured with or without hyperactivating stimuli. After 2 days incubation, cells were assessed for viability, and cell culture supernatant was used to measure cytokine output. Commercially available kits such as Biolegend LegendPlex kits were used as directed by manufacturer's protocol to quantify cytokines of interest.
PBMC were obtained from 13 cynomolgus macaques. Each activation condition was tested in triplicate, and the mean value of the triplicate is graphed for the animal sample. Repeated measures one-way ANOVA was used to test for statistical significance followed by Dunnett's multiple comparisons test.

[9] = system: human PBMCs; test: Cytokine secretion (IL-1β, IFNγ, TNFα) by human PBMCs; assay type: cell-based; settings: lipid 82.5 μM combined with R848 1 μg/mL, 2 days
Procedure: as §2, §3
Quantification of Cytokine Secretion. IL-1β secretion from human PBMCs was assessed using one of the following kits: ELISA MAX Deluxe Set Human IL-1β kit (Biolegend), Invitrogen Human IL-1β kit, or the Lumit™ Human IL-1β Immunoassay (Promega). IFNγ secretion from human PBMCs was assessed using the ELISA MAX Deluxe Set Human IFNγ (Biolegend) and TNFα secretion from human PBMCs was assessed using the Human TNFα Uncoated ELISA kit (Invitrogen). ELISAs were performed according to manufacturer's instructions with the following modifications: i) total sample+buffer volume for incubation was reduced from 100 μL to 50 μL; ii) the top standard was prepared at […], with two-fold dilutions to […]; and iii) sample incubation was completed overnight at 4 C on an orbital shaker. Lumit™ assays were performed according to manufacturer's instructions. IL-1β secretion from canine PBMCs was assessed using the Canine IL-1β/IL-1F2 DuoSet ELISA (R&D) according to manufacturer's instructions with the following modifications: i) total sample+buffer volume for incubation was reduced from 100 μL to 50 μL; ii) sample incubation was completed overnight at 4° C. on an orbital shaker. For all ELISAs, absorbance was measured at 450 nm, with a 570 nm correction, using a Spectramax M5e plate reader (Molecular Devices). For Lumit™ assays, luminescence was measured on all wavelengths using a Spectramax M5e plate reader (Molecular Devices) with an integration time of 500 ms. To determine cytokine concentrations in supernatants, sample concentrations were interpolated using a standard curve via 4PL analysis on GraphPad Prism 9 (GraphPad Software). The interpolated results of samples were then adjusted for any dilutions made to the supernatant.

[10] = 41.3 μM lipid + LPS 1 μg/mL, 2 days, Table 1-2
[11] = 82.5 μM lipid + LPS, selected lipids, Table 1-3 (repeats Table 1-1)
[12] = 41.3 μM lipid + LPS 1 μg/mL, 2 days, relative to LPS-treated moDCs, Table 1-2
[13] = 82.5 μM lipid + LPS 1 μg/mL, 2 days, relative to LPS-treated moDCs, Table 1-1
[14] = 10.3 μM lipid + LPS 1 μg/mL, 2 days, Table 1-5
[15] = 20.6 μM lipid + LPS, human moDCs, 4 donors, mean (SD in wrapped line below)
[16] = 10.3 μM lipid + LPS 1 μg/mL, 2 days, relative to LPS-treated moDCs, Table 1-5
[17] = 82.5 uM lipid + R848 vs R848 alone, 2 days

Structure (SMILES)	IL-1β secretion [1, 10] [pg/mL]	IL-1β secretion [1, 11] [pg/mL]	Relative Viability (%) ± SD [2, 12] [%]	Relative Viability (%) ± SD [2, 13] [%]	Relative Viability (%) ± SD [2, 11] [%]	IL-1β secretion [4, 14] [pg/mL]	IL-1β secretion [4, 15] [pg/mL]	Activity Units (AU) ± SD (lipid activity index) [4] [AU]	Relative Viability (%) ± SD [5, 16] [%]	also measured
CCCCCCCCCC(=O)OC[C@@H](O)COP(=O)([O-])OCC[N+](C)(C)C [10:0 LYSO PC]	33.3	37.8	97.8	95.2	95.2	35.7	35.2	0.00 ± 0.00	100.5	IFN-gamma (Th1 response) from cocultured memory CD4 T cells (in words) [3]: not detected; Relative Viability (%) ± SD ([5]; 20.6 μM lipid + LPS, human moDCs, 4 donors, relative to LPS alone): 100.4%
CCCCCCCCCCCCCCCC(=O)OC[C@H](COP(=O)([O-])OCC[N+](C)(C)C)OC(=O)CCCC(=O)O [PGPC, 1-palmitoyl-2-glutaryl-sn-glycero-3-phosphocholine, reference compound]	132.9	271.6	87.2	58.6	58.6	52.8	69.2	3.46 ± 4.14	98.5	human PBMC viability (in words) [6]: not observed to be toxic; relative cell viability (in words) [7]: somewhat toxic to canine PBMCs; cytokine fold changes relative to R848 alone (in words) ([8]; 41.3 uM lipid + R848): not as markedly increased; IL-1beta output (in words) ([8]; 82.5 uM lipid + R848 1 μg/mL vs R848 alone, 2 days): increased the IL-1beta output; IFN-beta secretion (in words) [8, 17]: increased; IFN-gamma secretion (in words) [8, 17]: significantly increased; IL-8 secretion (in words) [8, 17]: increased; IL-17a secretion (in words) [8, 17]: increased; IL-23 secretion (in words) [8, 17]: increased; moDC viability (in words) ([2]; human moDCs, lipid screens of Example 1): not observed to be toxic; IL-1β secretion (in words) [9]: did not induce substantially higher levels of IL-1β than R848 alone
